Measurements reported in ChEMBL document CHEMBL4507291 (2021).

Assays:
[1] = biological target: SRSF protein kinase 2 (Homo sapiens) (UniProt P78362); assay: SRPK2 Kinase screen; details: Compound concentration 1.0 uM
[2] = biological target: Mitogen-activated protein kinase 14 (Homo sapiens) (UniProt Q16539); assay: MAPK14 (p38 alpha) Kinase screen; details: Compound concentration 1.0 uM
Rattus norvegicus = organism: Rattus norvegicus; assay: Protein Serine/Threonine Kinase, PKC, Non-Selective Eurofins-Panlabs enzyme assay; details: Compound concentration 10.0 uM
[3] = biological target: C-X-C chemokine receptor type 4 (Homo sapiens) (UniProt P61073); assay: Chemokine CXCR4 Eurofins-Panlabs radioligand binding assay; parameters: ligand concentration 0.03 nM; details: Compound concentration 10.0 uM
[4] = biological target: Prostaglandin E2 receptor EP3 subtype (Homo sapiens) (UniProt P43115); assay: Prostanoid EP3 Eurofins-Panlabs radioligand binding assay; parameters: ligand concentration 0.5 nM, non-specific ligand with concentration 10 µM Prostaglandin EŽ2 (PGE2), incubation time 60 min, incubation temperature 25 °C; details: Compound concentration 10.0 uM
[5] = biological target: T1, Serine/threonine-protein kinase NLK (Homo sapiens) (UniProt Q9UBE8); assay: NLK Kinase screen; details: Compound concentration 1.0 uM
T1 sequence (whole entry): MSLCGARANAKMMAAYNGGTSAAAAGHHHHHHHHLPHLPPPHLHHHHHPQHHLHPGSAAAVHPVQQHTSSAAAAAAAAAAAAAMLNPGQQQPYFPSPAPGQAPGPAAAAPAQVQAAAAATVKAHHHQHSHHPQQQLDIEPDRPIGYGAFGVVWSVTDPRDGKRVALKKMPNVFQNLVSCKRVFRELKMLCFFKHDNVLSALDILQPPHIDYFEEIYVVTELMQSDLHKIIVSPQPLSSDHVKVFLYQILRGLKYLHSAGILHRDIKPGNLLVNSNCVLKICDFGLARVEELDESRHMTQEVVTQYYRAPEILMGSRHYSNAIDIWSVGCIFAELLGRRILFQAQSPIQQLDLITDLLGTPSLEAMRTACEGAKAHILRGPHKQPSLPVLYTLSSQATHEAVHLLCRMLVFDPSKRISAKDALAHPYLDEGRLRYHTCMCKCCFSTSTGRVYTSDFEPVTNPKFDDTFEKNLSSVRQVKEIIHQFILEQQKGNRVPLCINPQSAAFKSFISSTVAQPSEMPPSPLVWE

[6] = biological target: Glutamate receptor 2 (Homo sapiens) (UniProt P42262); details: Rattus norvegicus; Compound concentration 10.0 uM
[7] = tested on: Dual specificity mitogen-activated protein kinase kinase 6 (Homo sapiens), P52564 [S207E,T211E]; assay: MAP2K6 (MKK6) S207E T211E Kinase screen; details: Compound concentration 1.0 uM
[8] = biological target: T2, Serine/threonine-protein kinase 3 (Homo sapiens) (UniProt Q13188); assay: STK3 (MST2) Kinase screen; details: Compound concentration 1.0 uM
T2 sequence (whole entry): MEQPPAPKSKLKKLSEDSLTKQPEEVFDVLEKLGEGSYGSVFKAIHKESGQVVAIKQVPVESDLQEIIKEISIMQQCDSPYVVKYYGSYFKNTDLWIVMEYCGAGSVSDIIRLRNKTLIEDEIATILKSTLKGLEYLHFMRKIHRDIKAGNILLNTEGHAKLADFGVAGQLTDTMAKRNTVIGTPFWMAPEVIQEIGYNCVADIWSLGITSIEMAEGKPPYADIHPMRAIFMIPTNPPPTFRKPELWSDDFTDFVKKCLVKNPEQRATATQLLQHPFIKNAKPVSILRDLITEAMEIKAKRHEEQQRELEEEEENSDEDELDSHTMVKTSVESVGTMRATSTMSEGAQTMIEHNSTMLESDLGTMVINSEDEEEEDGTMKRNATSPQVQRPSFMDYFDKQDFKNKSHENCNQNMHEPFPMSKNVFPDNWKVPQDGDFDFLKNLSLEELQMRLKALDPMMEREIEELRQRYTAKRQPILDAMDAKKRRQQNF

[9] = biological target: T3, Protein kinase C epsilon type (Homo sapiens) (UniProt Q02156); assay: PRKCE (PKC epsilon) Kinase screen; details: Compound concentration 1.0 uM
T3 sequence (whole entry): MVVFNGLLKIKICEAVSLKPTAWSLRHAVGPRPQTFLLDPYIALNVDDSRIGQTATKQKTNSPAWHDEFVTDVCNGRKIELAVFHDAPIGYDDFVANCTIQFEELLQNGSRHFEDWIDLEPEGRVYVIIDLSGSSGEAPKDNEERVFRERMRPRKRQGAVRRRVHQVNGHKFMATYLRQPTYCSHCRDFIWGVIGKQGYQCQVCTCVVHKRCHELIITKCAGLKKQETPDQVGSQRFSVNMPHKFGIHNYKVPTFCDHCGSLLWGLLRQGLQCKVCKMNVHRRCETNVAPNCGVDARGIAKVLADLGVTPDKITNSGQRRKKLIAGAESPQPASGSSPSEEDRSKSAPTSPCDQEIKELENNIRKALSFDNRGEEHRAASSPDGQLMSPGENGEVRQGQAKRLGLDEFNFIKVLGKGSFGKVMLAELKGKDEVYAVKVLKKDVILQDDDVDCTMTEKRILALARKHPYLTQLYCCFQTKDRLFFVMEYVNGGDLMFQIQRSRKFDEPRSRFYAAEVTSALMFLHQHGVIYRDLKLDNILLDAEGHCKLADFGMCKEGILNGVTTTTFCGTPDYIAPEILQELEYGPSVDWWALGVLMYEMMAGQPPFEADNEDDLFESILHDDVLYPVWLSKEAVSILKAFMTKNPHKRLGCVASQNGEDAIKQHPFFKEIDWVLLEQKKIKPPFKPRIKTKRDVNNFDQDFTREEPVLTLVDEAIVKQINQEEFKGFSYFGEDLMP

[10] = biological target: Melanocortin receptor 3 (Homo sapiens) (UniProt P41968); assay: Inhibition of Melanocortin MC3 at 10 µM in the Eurofins-Panlabs radioligand binding assay (Eurofins_assay_251300); parameters: ligand concentration 0.035 nM; details: Compound concentration 10.0 uM
[11] = biological target: Tyrosine-protein kinase CSK (Homo sapiens) (UniProt P41240); assay: CSK Kinase screen; details: Compound concentration 1.0 uM
[12] = biological target: T4, Serine/threonine-protein kinase Sgk3 (Homo sapiens) (UniProt Q96BR1); assay: SGKL (SGK3) Kinase screen; details: Compound concentration 1.0 uM
T4 sequence (whole entry): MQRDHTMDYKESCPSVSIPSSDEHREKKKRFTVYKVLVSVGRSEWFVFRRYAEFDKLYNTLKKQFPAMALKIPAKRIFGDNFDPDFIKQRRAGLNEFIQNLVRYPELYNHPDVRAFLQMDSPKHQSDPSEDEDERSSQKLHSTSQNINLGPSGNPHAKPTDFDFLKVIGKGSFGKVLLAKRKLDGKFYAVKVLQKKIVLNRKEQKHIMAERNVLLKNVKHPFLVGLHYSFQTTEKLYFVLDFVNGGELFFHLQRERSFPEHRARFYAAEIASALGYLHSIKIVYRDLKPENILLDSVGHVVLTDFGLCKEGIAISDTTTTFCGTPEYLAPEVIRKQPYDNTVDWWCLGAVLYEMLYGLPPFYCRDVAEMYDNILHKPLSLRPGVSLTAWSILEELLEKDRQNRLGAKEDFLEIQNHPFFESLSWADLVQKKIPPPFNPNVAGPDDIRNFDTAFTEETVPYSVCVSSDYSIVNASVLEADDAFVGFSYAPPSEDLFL

Measured: inhibition

Sequence of SRSF protein kinase 2 (Homo sapiens) (P78362 whole entry, looked up): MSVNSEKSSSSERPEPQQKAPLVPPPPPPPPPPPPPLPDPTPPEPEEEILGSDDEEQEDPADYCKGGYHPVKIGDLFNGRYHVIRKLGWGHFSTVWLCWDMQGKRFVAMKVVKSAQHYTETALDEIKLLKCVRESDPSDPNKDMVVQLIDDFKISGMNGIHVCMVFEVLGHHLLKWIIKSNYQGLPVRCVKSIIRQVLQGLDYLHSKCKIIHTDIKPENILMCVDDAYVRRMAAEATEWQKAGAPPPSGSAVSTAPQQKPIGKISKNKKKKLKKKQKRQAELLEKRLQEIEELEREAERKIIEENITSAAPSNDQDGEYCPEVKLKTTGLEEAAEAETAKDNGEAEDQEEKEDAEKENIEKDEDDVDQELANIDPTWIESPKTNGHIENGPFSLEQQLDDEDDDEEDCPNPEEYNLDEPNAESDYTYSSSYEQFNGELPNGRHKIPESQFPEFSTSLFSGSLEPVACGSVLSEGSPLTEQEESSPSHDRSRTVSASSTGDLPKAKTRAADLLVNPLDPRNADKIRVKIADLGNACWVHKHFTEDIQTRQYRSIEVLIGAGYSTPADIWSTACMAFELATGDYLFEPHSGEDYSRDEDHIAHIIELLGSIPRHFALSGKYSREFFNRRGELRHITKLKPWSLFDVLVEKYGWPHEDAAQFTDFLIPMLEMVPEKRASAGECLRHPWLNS
Sequence of Glutamate receptor 2 (Homo sapiens) (P42262 whole entry): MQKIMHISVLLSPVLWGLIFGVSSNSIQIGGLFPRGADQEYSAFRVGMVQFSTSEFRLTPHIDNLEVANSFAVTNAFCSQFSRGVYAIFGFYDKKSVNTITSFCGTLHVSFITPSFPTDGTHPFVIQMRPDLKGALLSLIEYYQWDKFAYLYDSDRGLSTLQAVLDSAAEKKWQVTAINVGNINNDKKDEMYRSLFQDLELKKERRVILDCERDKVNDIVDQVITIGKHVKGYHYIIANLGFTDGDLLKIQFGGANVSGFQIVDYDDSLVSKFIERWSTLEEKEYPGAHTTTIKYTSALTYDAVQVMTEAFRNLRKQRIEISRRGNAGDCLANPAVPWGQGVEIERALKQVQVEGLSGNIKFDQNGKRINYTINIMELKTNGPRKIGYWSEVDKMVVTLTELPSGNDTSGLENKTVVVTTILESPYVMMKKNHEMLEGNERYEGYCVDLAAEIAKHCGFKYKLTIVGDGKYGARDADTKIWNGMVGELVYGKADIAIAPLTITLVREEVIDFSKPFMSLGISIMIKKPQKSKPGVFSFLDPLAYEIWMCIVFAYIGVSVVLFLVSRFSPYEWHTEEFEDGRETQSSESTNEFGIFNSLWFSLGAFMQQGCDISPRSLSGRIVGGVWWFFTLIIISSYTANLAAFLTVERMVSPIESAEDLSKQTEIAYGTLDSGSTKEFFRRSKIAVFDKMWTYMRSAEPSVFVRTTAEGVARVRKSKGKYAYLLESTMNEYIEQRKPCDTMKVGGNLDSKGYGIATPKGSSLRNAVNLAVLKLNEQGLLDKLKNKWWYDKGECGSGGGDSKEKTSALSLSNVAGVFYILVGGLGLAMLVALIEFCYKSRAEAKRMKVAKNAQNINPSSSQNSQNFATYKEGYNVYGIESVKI
Sequence of Tyrosine-protein kinase CSK (Homo sapiens) (P41240 2-450 limits assumed): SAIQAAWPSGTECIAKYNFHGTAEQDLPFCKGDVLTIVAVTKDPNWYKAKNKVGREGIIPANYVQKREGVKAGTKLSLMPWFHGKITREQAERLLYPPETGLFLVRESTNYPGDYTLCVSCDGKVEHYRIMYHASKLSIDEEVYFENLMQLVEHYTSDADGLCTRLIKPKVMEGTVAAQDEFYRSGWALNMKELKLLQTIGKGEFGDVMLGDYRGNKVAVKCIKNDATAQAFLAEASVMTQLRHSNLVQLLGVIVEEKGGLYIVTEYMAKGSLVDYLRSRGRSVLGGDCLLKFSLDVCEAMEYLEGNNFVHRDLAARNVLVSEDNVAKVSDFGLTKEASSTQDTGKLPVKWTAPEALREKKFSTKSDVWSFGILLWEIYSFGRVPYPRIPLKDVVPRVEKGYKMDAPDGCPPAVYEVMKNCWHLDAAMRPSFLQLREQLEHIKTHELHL
Sequence of Mitogen-activated protein kinase 14 (Homo sapiens) (Q16539 whole entry): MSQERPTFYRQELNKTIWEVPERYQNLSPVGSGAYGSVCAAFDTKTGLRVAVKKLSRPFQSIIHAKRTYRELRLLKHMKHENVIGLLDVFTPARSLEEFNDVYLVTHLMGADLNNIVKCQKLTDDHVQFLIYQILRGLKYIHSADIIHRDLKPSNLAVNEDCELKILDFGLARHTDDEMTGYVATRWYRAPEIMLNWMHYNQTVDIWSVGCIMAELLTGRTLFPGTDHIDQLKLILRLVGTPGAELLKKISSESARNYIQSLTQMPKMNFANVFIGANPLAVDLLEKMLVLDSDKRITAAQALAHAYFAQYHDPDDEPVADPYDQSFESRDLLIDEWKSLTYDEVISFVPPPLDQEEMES
Sequence of Dual specificity mitogen-activated protein kinase kinase 6 (Homo sapiens), P52564 [S207E,T211E] (P52564 whole entry S207E/T211E): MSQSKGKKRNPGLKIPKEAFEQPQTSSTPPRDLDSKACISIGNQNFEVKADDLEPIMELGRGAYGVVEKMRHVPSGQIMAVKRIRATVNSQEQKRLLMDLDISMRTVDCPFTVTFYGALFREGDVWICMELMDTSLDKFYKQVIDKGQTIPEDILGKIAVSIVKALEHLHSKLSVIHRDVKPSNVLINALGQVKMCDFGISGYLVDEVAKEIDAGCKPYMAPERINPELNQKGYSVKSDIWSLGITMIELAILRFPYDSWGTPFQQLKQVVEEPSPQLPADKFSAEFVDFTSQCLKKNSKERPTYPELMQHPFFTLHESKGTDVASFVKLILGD
Sequence of C-X-C chemokine receptor type 4 (Homo sapiens) (P61073 whole entry): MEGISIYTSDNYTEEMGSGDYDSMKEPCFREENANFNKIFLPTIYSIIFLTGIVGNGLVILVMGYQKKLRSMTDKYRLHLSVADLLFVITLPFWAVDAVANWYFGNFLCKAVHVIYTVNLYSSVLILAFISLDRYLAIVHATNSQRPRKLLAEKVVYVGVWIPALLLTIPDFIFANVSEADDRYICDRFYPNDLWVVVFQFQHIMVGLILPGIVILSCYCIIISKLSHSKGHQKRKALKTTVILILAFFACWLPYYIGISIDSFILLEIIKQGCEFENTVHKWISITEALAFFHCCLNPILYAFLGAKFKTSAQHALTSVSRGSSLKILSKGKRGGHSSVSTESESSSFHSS
Sequence of Melanocortin receptor 3 (Homo sapiens) (P41968 whole entry): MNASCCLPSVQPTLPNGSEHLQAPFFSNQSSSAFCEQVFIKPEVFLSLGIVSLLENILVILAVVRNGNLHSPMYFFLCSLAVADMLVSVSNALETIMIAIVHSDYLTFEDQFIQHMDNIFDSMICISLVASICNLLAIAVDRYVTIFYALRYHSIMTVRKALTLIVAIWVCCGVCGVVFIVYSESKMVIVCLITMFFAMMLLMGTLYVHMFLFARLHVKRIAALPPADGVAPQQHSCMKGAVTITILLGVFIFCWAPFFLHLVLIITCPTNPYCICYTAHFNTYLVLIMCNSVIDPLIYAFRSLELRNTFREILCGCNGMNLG
Sequence of Prostaglandin E2 receptor EP3 subtype (Homo sapiens) (P43115 whole entry): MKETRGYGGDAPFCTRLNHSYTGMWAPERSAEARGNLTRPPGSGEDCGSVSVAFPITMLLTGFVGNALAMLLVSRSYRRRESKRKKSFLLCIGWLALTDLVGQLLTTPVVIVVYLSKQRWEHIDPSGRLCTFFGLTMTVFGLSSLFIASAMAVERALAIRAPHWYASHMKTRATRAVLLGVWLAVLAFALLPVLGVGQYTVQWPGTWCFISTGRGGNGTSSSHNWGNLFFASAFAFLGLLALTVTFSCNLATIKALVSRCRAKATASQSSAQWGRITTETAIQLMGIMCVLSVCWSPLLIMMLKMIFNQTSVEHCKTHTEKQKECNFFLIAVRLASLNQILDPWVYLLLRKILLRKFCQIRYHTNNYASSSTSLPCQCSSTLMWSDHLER

C[C@@H]1CN(c2cc(-c3n[nH]c4ccc(OC5(C)CC5)cc34)ncn2)C[C@H](C)O1 [MLi-2]
inactive: [1] 0.838% | [2] -6.52% | Rattus norvegicus 26% | [3] 3% | [4] -4% | [5] 4.49% | [6] -2% | [7] -1.97% | [8] 11.9% | [9] 4.4% | [10] -2% | [11] 5.55% | [12] 0.213%
